Test results reported in publication PMC3479139, “Diverse Small Molecule Inhibitors of Human Apurinic/Apyrimidinic Endonuclease APE1 Identified from a Screen of a Large Public Collection” (PLoS ONE, 2012).
pIC50: −log10 of the molar value. Read-outs that look alike come from different tables or passages of the source.

What was measured:
[1] = tested on: tubulin; design: method as in PMID 20657644; conditions: cited from earlier work
[2] = molecular target: T1, E. coli Endo IV (Escherichia coli, UniProt P0A6C1); experiment: E. coli Endo IV profiling counterscreen; assay type: biochemical;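 further: selectivity counterscreen of candidate APE1 inhibitors against the bacterial endonuclease Endo IV, run in the same assay format as the primary APE1 high-throughput screen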
T1 construct: made in house
Excerpt: (§1) In order to screen out nonselective compounds, such as non-specific DNA binders and inhibitors of related enzymes, we used a miniaturized ThO DNA displacement assay and a counterscreen against the bacterial endonuclease E. coli Endo IV, respectively, following the previously published protocols [21].
To probe the selectivity of the candidate APE1 inhibitors, we tested them against E. coli EndoIV [36], employing the same assay as used in the HTS.

[3] = tested on: HeLa cells; experiment: MMS potentiation assay (CellTiter Glo viability); assay type: cell-based, human; design: key: N.A., no activity observed; P, positive; I, inconclusive; N.T., not tested; conditions: for MMS Assay: potentiation of the genotoxic effect of methylmethane sulfonate
Experimental: HeLa cells were plated at 6000 cells/well in DMEM culture medium containing 10% FBS into white solid bottom 384-well cell culture plates. The plates were incubated at 37°C overnight for cell attachment, followed by media replacement. The fresh medium contained serial dilutions of compounds of interest in the presence (0.4 mM final) or absence of MMS. The plates were incubated for 24 h at 37°C. Cell viability was determined by luminescence detection after an addition of 15 µL of CellTiter Glo reagent (Promega, Madison, WI). Percent viability was calculated for each concentration of compound tested in duplicate by relating the corresponding luminescence to that of a negative DMSO vehicle control. MMS potentiation trends were defined as follows: negative (-), if cell viability in the compound-plus-MMS treatment was the same as that of the DMSO-plus-MMS control (overlapping dose-response curves); inconclusive (I), if the shift in the cell viability dose-response upon MMS inclusion relative to compound-alone was less than 30%; and positive (P), if the difference between the compound-plus-MMS and compound-alone curves was at least 30%, and maintained within at least a two-fold compound concentration span.
To examine the biological prospects of the top compounds, we tested their ability to inhibit APE1 DNA repair activity by assessing enhancement of MMS toxicity in mammalian cells. MMS creates methylated-base damage to genomic DNA, which, when excised by an alkylpurine DNA glycosylase, results in a high number of cytotoxic AP sites. We compared the viability of HeLa cells exposed to a dilution series of inhibitor alone to a combination of a fixed MMS concentration with the same dilution series of inhibitor by using a standard CellTiter Glo luminescence assay. This technique measures the number of viable cells in culture based on quantitation of the ATP present, which signals the presence of metabolically active cells. The assay was further optimized for 384-well plates, allowing a high-throughput testing of multiple hits at multiple concentrations, a scope of investigation previously impossible due to the very low throughput of the traditionally applied colony formation assay.
From the 223 compounds found positive in the gel-based APE1 assays, exclusion of the most promiscuous hits, that is, those that were both DNA binders and EndoIV-inhibitory, yielded a set of 170 compounds (Figure 3). This shortened group of hits was tested in the cell-based potentiation assay for their ability to dose-dependently enhance sensitivity of HeLa cells to the alkylating agent MMS.

[4] = molecular target: T2, APE1 (Homo sapiens, UniProt P27695); experiment: Gel-based radiotracer (32P) APE1 incision assay; assay type: biochemical; design: concentration or dose not given beside the values; conditions: percent incision shown; entries 1-112;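 further: APE1 incision reactions ran 5 min at 37 °C, with cleaved product and intact substrate resolved electrophoretically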
T2 construct: made in house
T2 sequence (P27695 whole entry): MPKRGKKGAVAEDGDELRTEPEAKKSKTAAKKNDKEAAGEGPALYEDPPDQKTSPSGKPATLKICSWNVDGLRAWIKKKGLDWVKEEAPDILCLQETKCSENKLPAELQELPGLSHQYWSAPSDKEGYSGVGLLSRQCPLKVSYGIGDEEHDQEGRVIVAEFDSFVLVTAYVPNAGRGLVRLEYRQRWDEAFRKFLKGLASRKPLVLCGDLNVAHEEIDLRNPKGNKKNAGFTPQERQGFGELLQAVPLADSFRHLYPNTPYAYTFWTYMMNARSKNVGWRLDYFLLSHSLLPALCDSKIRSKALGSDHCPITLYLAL

[5] = tested on: HeLa cells; experiment: AP site measurement in genomic DNA; assay type: cell-based, human; conditions: 24 h; for AP site levels, combination treatment versus MMS-alone: 275 µM MMS plus inhibitor, initial test (Figure 8); for AP sites upon treatment with the inhibitor alone: inhibitor alone vs vehicle
Experimental: HeLa cells at 80% confluency (6×10^5 cells) were subjected to the following treatments in a 6-well plate for 24 hours at 37°C: 1) DMSO alone, 2) 275 µM MMS, 3) APE1 inhibitors dissolved in DMSO (5–20 µM final compound concentration), and 4) the inhibitors as in treatment 3 in combination with 275 µM MMS. Cells were then harvested and processed using a Qiagen Genomic DNA isolation kit (Germantown, MD). After DNA quantitation, AP sites were measured using the DNA Damage Quantification kit from Dojindo Molecular Technologies (Rockville, MD).
As stated above, the application of the genotoxic agent MMS results in an increase in the level of AP sites within the genome. An effective APE1-targeted inhibitor applied under the conditions of increased genotoxic stress is expected to interfere with the repair of AP sites, while ideally having no effect on the AP site levels when applied as a single agent. Thus, the net effect of treating cells with a combination of MMS and inhibitor would be an increase in the number of AP site lesions. To determine the effect on AP site accumulation caused by treatment with MMS in combination with an APE1 inhibitor, as compared to treatment with MMS or inhibitor alone, we measured AP site levels in the chromosomal DNA from HeLa cells using an aldehyde-reactive probe-based colorimetric assay. The concentrations of MMS and inhibitor (275 µM for MMS and between […] for the inhibitor, respectively) were selected to fall below the onset of cytotoxicity for each agent based on the analysis of the MMS potentiation data shown in Figure 5.

[6] = molecular target: T2, APE1; experiment: Fluorogenic kinetic qHTS APE1 incision assay (primary screen and retest of cherrypicked samples); assay type: biochemical;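 further: purified APE1 cleaving a fluorophore/dark-quencher labelled 17-mer duplex DNA bearing a tetrahydrofuran AP site, fluorescence rise followed kinetically over the first 2 min, inhibition normalized to controls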
[7] = molecular target: double-stranded 17-mer DNA fragment; experiment: ThO (Thiazole Orange) DNA displacement assay; assay type: binding; conditions: read-out: ThO-DNA binding IC50;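 further: miniaturized displacement of the intercalating dye from unlabeled duplex DNA, used to flag nonspecific DNA binders, chiefly intercalators, groove binders may be missed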
Excerpt: The double-stranded 17-mer DNA fragment used in the ThO DNA binding assay was of the same sequence as the fluorogenic HTS substrate but carried no dye labels.
as §1
To detect screening hits that inhibit APE1 activity through non-specific DNA interactions, we employed a previously established miniaturized ThO dye displacement assay [21]. […] We note that the ThO assay reports primarily on DNA binders acting through intercalation, while potentially missing other types of DNA binders, such as those acting through the minor groove.

[8] = molecular target: T2, APE1; experiment: Fluorescence polarization (FP) displacement assay of APE1 binding to AP-DNA probe; conditions: read-out: FP IC50;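 further: TAMRA 5′-labeled duplex DNA with THF abasic site (5 nM) and APE1 (20 nM), Mg2+-free buffer, 15 min at room temperature, inhibition seen as lowered polarization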
Experimental: Double-stranded oligodeoxynucleotide containing tetrahydrofuran (THF) abasic site labeled with TAMRA at the 5′-end was used as the labeled binding probe. Inhibition of APE1 binding to labeled probe was detected by a decrease in the fluorescence polarization (FP) of the fluorophore. Briefly, 4 µL mixture of 20 nM APE1 and 5 nM probe contained in the enzymatic assay buffer from which Mg^2+ was omitted, was dispensed into 1536-well Greiner black solid bottom plates. Compounds (23 nL) were transferred via pintool, and after a 15-minute incubation at room temperature, fluorescence polarization was measured in a ViewLux High-throughput CCD imager (480 nm excitation and 540 nm emission) to determine the degree of probe displacement caused by the test compounds.

[9] = tested on: human immunodeficiency virus integrase; design: method as in PMID 9865384; conditions: cited from earlier work
[10] = molecular target: T2, APE1; experiment: Gel-based APE1 incision assay with fluorescence (TAMRA) detection; assay type: biochemical
Experimental: To test the compounds’ inhibitory activity after the primary screen, two assays designed to monitor the cleavage of substrate to product through electrophoretic separation were utilized. The radiotracer incision assay, utilizing a ^32P-labeled substrate, was performed essentially as described [21], [31], [32]. Incision reactions utilizing ^32P-labeled substrate were carried out for 5 min at 37°C. After the addition of an equal volume of stop buffer (0.05% bromophenol blue and xylene cyanol, 20 mM EDTA, 95% formamide), the substrate and product were separated on a standard polyacrylamide denaturing gel and quantified by PhosphorImager analysis [32]. […] APE1 cleavage of the substrate results in a 18-mer TAMRA-labeled fragment which was separated by a non-denaturing polyacrylamide gel electrophoresis and quantitated in a Gel Doc XR imaging system, BioRad (Hercules, CA). The advantage of this assay is that it can be used in a relatively high throughput mode with the inhibitors tested at a range of concentrations (0.17 µM to 125 µM was used here). APE1 (0.15 nM) was added to a reaction mixture of 20 µL containing assay buffer (40 mM HEPES pH 7.5, 50 mM NaCl, 1 mM MgCl2 and 2 mM DTT), and labeled ds DNA substrate (final 75 nM). The mixture was incubated at RT for 15 min, and the reaction was stopped by the addition 20 µL of 2X dye stop solution (10% glycerol, 20 mM EDTA and bromophenol blue). Then 10 µL of the mixture was resolved on 20% polyacrylamide gel in 1X Tris-borate EDTA running buffer at 250 V for 40 min.
To eliminate false positive hits, all 595 confirmed molecules were tested for their ability to inhibit APE1 incision activity using biochemical assays that involve electrophoretic separation of the substrate and cleavage product.

[11] = tested on: histone acetyltransferase (HAT) p300; design: method as in PMID 20534345, PMID 21764752; conditions: cited from earlier work
[12] = initial quantitative high-throughput screen, read-out: APE1 qHTS IC50
[13] = retest of cherrypicked sample, read-out: APE1 Retest IC50
[14] = estimated IC50, fluorophore detection, entries 113-223, read-out: F-PAGE Assay IC50

SMILES | Inhibition of tubulin assembly [1] | pIC50 ([2]; read-out: EndoIV IC50) | MMS Assay [3] | Radiotracer Assay (%Activity) [4] [%] | AP site levels, combination treatment versus MMS-alone [5] | pIC50 ([6]; initial qHTS, 7-point titration, read-out: qHTS, IC50 obtained in the initial quantitative high-throughput screen) | pIC50 [6, 12] | pIC50 [6, 13] | pIC50 [7] | pIC50 [8] | HIV integrase IC50 [9] | pIC50 [2] | pIC50 [10, 14] | AP sites upon treatment with the inhibitor alone [5] | Inhibition of HAT p300 [11] | MMS Assay: potentiation of the genotoxic effect of methylmethane sulfonate [3] | pIC50 ([10]; entries 113-223: fluorophore detection, estimated IC50, read-out: Gel-based electrophoretic separation assay with fluorophore detection, estimated IC50 (column headed Radiotracer Assay (%Activity)))
Cc1c(C(=O)OCC2CCCO2)[nH]c2c1C(=O)CC(c1ccco1)C2 (stereo not drawn) [MLS000090966] | effective inhibitor | < 4.24 | P | 37 | obscured by large standard deviations | 5.15 | 5.15 | 5.35 | < 4.24 | 4.80 | – | – | – | – | – | – | –
O=c1oc2c(cc1O)oc(=O)c1cc(O)c(O)c(O)c12 [MLS000737267, galloflavin] | – | < 4.24 | P | 46 | no statistical significance | – | 6.40 | 6.89 | 5.20 | < 4.24 | low-micromolar | – | – | – | – | – | –
COc1cc2c(ccc3cc(OC)c(OC)c(O)c32)cc1O [MLS000863573] | – | – | P | 4 | no statistical significance | – | 6.15 | 6.22 | 4.95 | 4.90 | – | 5.05 | – | – | – | – | –
CC1CCN(C2=NN3C(=N)/C(=C\c4ccc(OC(=O)c5ccco5)cc4)C(=O)N=C3S2)CC1 [MLS001076862] | – | < 4.24 | P | – | no statistical significance | – | 4.97 | – | < 4.24 | – | – | – | 5.40 | noticeable increase in AP sites | – | – | –
CCOC(=O)c1cc(-c2ccc(/C=C3/C(=O)N(c4ccc(C(=O)O)cc4)N=C3C)o2)ccc1Cl [MLS001196838] | – | < 4.24 | P | – | – | – | 5.08 | 4.59 | 4.79 | < 4.24 | – | – | 5.10 | noticeable increase in AP sites | potent and selective inhibitor | – | –
COc1ccc2nc3cc(Cl)ccc3c(Nc3cc(CN4CCCC4)c(O)c(CN4CCCC4)c3)c2n1 [MLS001306480, pyronaridine, reference compound] | – | – | – | – | – | – | 4.82 | 5.19 | < 4.24 | 4.49 | – | 4.54 | – | noticeable increase in AP sites | – | P | 4.90
